Results reported in patent US20210101879A1, “AMYLOID PROTEIN-SELECTIVE BACE INHIBITORS (ASBIs) FOR ALZHEIMER?S DISEASE” (The Regents of the University of California, priority 2018, published 2021).
“And” between values parts separate entries of the source, which are not always exact repeats. Equal values may be shown once. Read-outs that look alike come from different tables or passages of the source.

Tests used:
BACE-1 = BACE-1 (Homo sapiens (Human), UniProt P56817); experiment: cell-free BACE enzyme assay with P5-P5′ substrate; format: biochemical
Procedure: For the assay, 4 μL of assay buffer was added to each well, followed by 2 μL of BACE-1 diluted in assay buffer to 7.5 ng/μL. Then, 2 μL of inhibitor, at concentrations along an 11 pt. two-fold dilution series starting at 0.5 μM, were added to appropriate wells and incubated for 30 minutes at room temperature. Afterwards, 2 μL of P5-P5′ BACE-1 substrate, diluted to 50 μM in assay buffer, were added to each well, after which the signal generated was read every 30 minutes at 25° C. for 2 hr.

PAMPA = format: in vitro ADME
[1] = test system: CHO-7W cells (stably transfected with human amyloid precursor protein wildtype); experiment: CHO-7W cell assay (AlphaLISA of media); format: cell-based, Chinese hamster; conditions: treatment for 24 hours
Procedure: For the assay, 50 μL of CHO-7W cells were added to each well at 4×10^5 cells/mL. Then, 50 μL of inhibitor, prepared for tested concentrations, were added to appropriated wells and incubated for 24 hours at 37° C. Afterwards, media from each well is collected and assayed using an AlphaLISA assay for respective analytes.

pharmacokinetics in mice = format: in vivo
[2] = cell-free, several replicate values per cell, some flagged 's' (flag not defined), read-out: BACE1 IC50

Sequence of BACE-1 (P56817 46-501): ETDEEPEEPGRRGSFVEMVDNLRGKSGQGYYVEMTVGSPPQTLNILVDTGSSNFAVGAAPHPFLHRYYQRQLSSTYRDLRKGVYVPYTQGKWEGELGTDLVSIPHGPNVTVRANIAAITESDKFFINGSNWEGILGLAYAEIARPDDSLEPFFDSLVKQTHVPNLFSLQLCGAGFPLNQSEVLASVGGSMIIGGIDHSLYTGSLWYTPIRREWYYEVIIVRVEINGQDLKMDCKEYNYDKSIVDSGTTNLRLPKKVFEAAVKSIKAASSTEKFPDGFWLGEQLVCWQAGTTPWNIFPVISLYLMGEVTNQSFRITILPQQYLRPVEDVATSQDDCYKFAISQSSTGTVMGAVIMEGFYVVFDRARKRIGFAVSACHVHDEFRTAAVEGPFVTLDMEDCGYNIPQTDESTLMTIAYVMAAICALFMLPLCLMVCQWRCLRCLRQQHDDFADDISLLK

| SMILES | IC50 (BACE-1; [2]) | PAMPA (PAMPA) | also measured |
| --- | --- | --- | --- |
| Cc1cc(C2(c3cccc(F)c3)N=C(N)N(C)C2=S)ccc1OC(F)F (centres unmarked) [FAH-31] | 4340 nM and 3960 nM | 3.07 |  |
| Cc1cc(C2(c3cncnc3)N=C(N)N(C)C2=O)ccc1OC(F)F (centres unmarked) [FAH-33] | > 5000 nM | 0.24 |  |
| Cc1cc(C2(c3cncc(F)c3)N=C(N)N(C)C2=O)ccc1OC(F)F (centres unmarked) [FAH-37] | 1930 nM | 0.54 |  |
| Cc1cc(C2(c3cocn3)N=C(N)N(C)C2=O)ccc1OC(F)F (centres unmarked) [FAH-38] | > 5000 nM | 3.46 |  |
| Cc1cc(C2(c3ccnc(F)c3)N=C(N)N(C)C2=O)ccc1OC(F)F (centres unmarked) [FAH-46] | 2990 nM | 0.65 |  |
| Cc1cc(C2(c3ccc(OC(F)F)c(C)c3)N=C(N)N(C)C2=O)ccn1 (centres unmarked) [FAH-47] | 3050 nM | 0.46 |  |
| COc1cc(C2(c3ccc(OC(F)F)c(C)c3)N=C(N)N(C)C2=O)ccn1 (centres unmarked) [FAH-48] | 4350 nM | 0.68 |  |
| COCc1cc(C2(c3ccc(OC(F)F)c(C)c3)N=C(N)N(C)C2=O)ccn1 (centres unmarked) [FAH-53] |  | 0.26 |  |
| CC#Cc1cc(C2(c3ccc(OC(F)F)c(C)c3)N=C(N)N(C)C2=O)ccn1 (centres unmarked) [FAH-57] | 440 nM and 510 nM | 0.61 | amyloid-beta (Aβ) [1]: significantly decreased; soluble amyloid precursor protein beta (sAPPβ) [1]: significantly decreased |
| Cc1cc(C2(C3CCCCC3)N=C(N)N(C)C2=O)ccc1OC(F)F (centres unmarked) [FAH-59] | 720 nM | 4.43 |  |
| Cc1cc(C2(C3CCN(C)CC3)N=C(N)N(C)C2=O)ccc1OC(F)F (centres unmarked) [FAH-67] |  | 0.20 |  |
| CCCC1CC(C2(c3ccc(OC(F)F)c(C)c3)N=C(N)N(C)C2=O)CCN1C (centres unmarked) [FAH-68] | 16100 nM | 0.20 |  |
| Cc1cc(C2(C3CCCC(c4ncco4)C3)N=C(N)N(C)C2=O)ccc1OC(F)F (centres unmarked) [FAH-69] | 110 nM and 210 nM and 120 nM and 430 nM | 0.92 |  |
| Cc1cccc(C2(c3cccc(-c4cccnc4)c3)N=C(N)N(C)C2=O)c1 (centres unmarked) [FAH-75] | 210 nM and 240 nM and 150 nM and 420 nM | 0.62 |  |
| CN1C(=O)C(c2cnc(OC(F)F)nc2)(c2cccc(F)c2)N=C1N (centres unmarked) [FAH-83] | 2910 nM and 2330 nM and 9190 nM | 0.51 and 0.53 |  |
| CN1C(=O)C(c2ccc(OCF)cc2)(c2cccc(-c3cncnc3)c2)N=C1N (centres unmarked) [FAH-84] |  | 0.30 |  |

| SMILES | IC50 (BACE-1; [2]) | PAMPA (PAMPA) | also measured |
| --- | --- | --- | --- |
| Cc1cc(C2(C3CCCC(c4cncnc4)C3)N=C(N)N(C)C2=O)ccc1OC(F)F (centres unmarked) [FAH-85] | 220 nM | 0.51 2 peaks |  |
| CC1CCN(c2cccc(C3(c4ccc(OC(F)F)cc4)N=C(N)N(C)C3=O)c2)C1 (centres unmarked) [FAH-88] | 840 nM and 600 nM and 2130 nM | 4.53 2-peaks |  |
| CN1C(=O)C(C)(c2cccc(-c3cncnc3)c2)N=C1N (centres unmarked) [FAH-100] | 2310 nM and 4850 nM | 0.27 |  |
| CC#Cc1cncc(-c2cccc(C3(C(C)C)N=C(N)N(C)C3=O)c2)n1 (centres unmarked) [FAH-101] |  | 1.71 |  |
| CCCc1cncc(-c2cccc(C3(C(C)C)N=C(N)N(C)C3=O)c2)n1 (centres unmarked) [FAH-106] | 2180 nM and 3160 nM | 2.36 |  |
| Cc1ncc(-c2cccc(C3(C4CC4)N=C(N)N(C)C3=O)c2)cn1 (centres unmarked) [FAH-107] | 8870 nM and 4930 nM and 6880 nM | 0.40 |  |
| CN1C(=O)C(c2cccc(-c3cncnc3)c2)(c2ccc3occc3c2)N=C1N (centres unmarked) [FAH-116] | 270 nM and 260 nM | 0.52 |  |
| CN1C(=O)C(c2cccc(-c3cncnc3)c2)(c2ccc3c(c2)CCO3)N=C1N (centres unmarked) [FAH-117] | 1370 nM and 410 nM | 0.32 |  |
| CN1C(=O)C(c2cc(-c3cncc(F)c3)ccc2F)(C2CC2)N=C1N (centres unmarked) [FAH-126] |  |  | BACE1 IC50 (μM) (BACE-1; cell-free, several replicate values per cell, some flagged 's' (flag not defined)): inactive |
| Cc1cc(C2(c3ccc(F)c(-c4cncnc4)c3)N=C(N)N(C)C2=O)ccc1OC(F)F (centres unmarked) [FAH-127, 2-amino-5-(4-(difluoromethoxy)-3-methylphenyl)-5-(4-fluoro-3-(pyrimidin-5-yl)phenyl)-3-methyl-3,5-dihydro-4H-imidazol-4-one] | 14 nM and 13 nM and 5 nM and 24.6 nM | 0.53 and 0.49 and 0.50 | IC50 (BACE-1; cell-free BACE assay): 13 nM; brain penetrance (pharmacokinetics in mice): good brain-penetrance; brain peak (pharmacokinetics in mice; at 1 hour): ~3000 (range 600-6000) ng/g |
| CN1C(=O)C(c2cccc(-c3cncnc3)c2)(c2ccc3c(c2)OCCO3)N=C1N (centres unmarked) [FAH-135] | 210 nM | 0.26 |  |
| CN1C(=O)C(c2cccc(-c3cncnc3)c2)(c2ccc3c(c2)OCO3)N=C1N (centres unmarked) [FAH-136] | 250 nM | 0.30 |  |
| CN1C(=O)C(c2cccc(-c3cncnc3)c2)(c2ccc3c(c2)OC(F)(F)O3)N=C1N (centres unmarked) [FAH-137] | 460 nM | 0.59 |  |
| CC#Cc1cncc(-c2cc(C3(c4ccnc(C(F)F)c4)N=C(N)N(C)C3=O)ccc2F)c1 (centres unmarked) [FAH-152] | 20 nM | 0.46 |  |
| Cc1cc(C2(c3cc(-c4cncnc4)ccc3F)N=C(N)N(C)C2=O)ccc1OC(F)F (centres unmarked) [FAH-156] | 200 nM | 0.25 |  |

More lines, main results first:

| IC50 (BACE-1; [2]) | PAMPA (PAMPA) | SMILES | also measured |
| --- | --- | --- | --- |
|  | 2.29 | Cc1cc(C2(c3cccc(F)c3)N=C(N)N(Cc3ccccc3)C2=O)ccc1OC(F)F (centres unmarked) [FAH-42] |  |
| 140 nM and 230 nM and 490 nM | 0.79 | Cc1cc(C2(c3cccc(-c4cnco4)c3)N=C(N)N(C)C2=O)ccc1OC(F)F (centres unmarked) [FAH-43] | amyloid-beta (Aβ) [1]: significantly decreased; soluble amyloid precursor protein beta (sAPPβ) [1]: significantly decreased |
|  | 0.91 | COCc1cccc(C2(c3ccc(OC(F)F)c(C)c3)N=C(N)N(C)C2=O)c1 (centres unmarked) [FAH-44] |  |
|  | 0.35 | CNCc1cccc(C2(c3ccc(OC(F)F)c(C)c3)N=C(N)N(C)C2=O)c1 (centres unmarked) [FAH-62] |  |
|  | 0.38 | CNCCc1cccc(C2(c3ccc(OC(F)F)c(C)c3)N=C(N)N(C)C2=O)c1 (centres unmarked) [FAH-63] |  |
|  | 0.35 | Cc1cc(C2(c3cccc(C4CNC4)c3)N=C(N)N(C)C2=O)ccc1OC(F)F (centres unmarked) [FAH-64] |  |
| 18 nM and 12 nM and 19 nM and 47 nM and 28 nM and 36 nM | 1.15 | Cc1cc(C2(c3cccc(-c4cncc(F)c4)c3)N=C(N)N(C)C2=O)ccc1OC(F)F (centres unmarked) [FAH-66] | amyloid-beta (Aβ) [1]: significantly decreased; soluble amyloid precursor protein beta (sAPPβ) [1]: significantly decreased |
| 140 nM and 100 nM and 49 nM and 87 nM and 93 nM | 0.37 | Cc1cc(C2(c3cccc(-c4ccnnc4)c3)N=C(N)N(C)C2=O)ccc1OC(F)F (centres unmarked) [FAH-72] |  |
| 530 nM and 690 nM | 5.11 | Cc1cc(C2(c3cccc(-c4ccccc4)c3)N=C(N)N(C)C2=O)ccc1OC(F)F (centres unmarked) [FAH-73] |  |
| 4.2 nM and 2.5 nM and 5.7 nM and 7.5 nM and 15 nM and 23 nM | 0.36 | CN1C(=O)C(c2ccc(OC(F)F)cc2)(c2cccc(-c3cncnc3)c2)N=C1N (centres unmarked) [FAH-74] | IC50 (BACE-1; cell-free BACE assay): 13 nM |
| 780 nM and 450 nM and 2400 nM |  | Cc1cc(C2(c3cccc(-c4ccco4)c3)N=C(N)N(C)C2=O)ccc1OC(F)F (centres unmarked) [FAH-82] |  |
| 300 nM and 340 nM and 420 nM and 290 nM | 0.58 | Cc1cc(C2(c3cccc(-c4ccncn4)c3)N=C(N)N(C)C2=O)ccc1OC(F)F (centres unmarked) [FAH-87] |  |
| 150 nM and 210 nM | 0.38 | Cc1cc(C2(c3cccc(NC(=O)N(C)C)c3)N=C(N)N(C)C2=O)ccc1OC(F)F (centres unmarked) [FAH-99] |  |
| 47 nM and 38 nM | 0.46 | Cc1cc(C2(c3cccc(-c4cnc(N)nc4)c3)N=C(N)N(C)C2=O)ccc1OC(F)F (centres unmarked) [FAH-110] | IC50 (BACE-1; cell-free BACE assay): 43 nM |
| 80 nM and 110 nM | solubility issue | Cc1cc(C2(c3cccc(-c4cncc(C5CC5)c4)c3)N=C(N)N(C)C2=O)ccc1OC(F)F (centres unmarked) [FAH-111] |  |
